From patent US20100143440A1, “UL97 INHIBITORS FOR TREATMENT OF PROLIFERATIVE DISORDERS” (The UAB Research Foundation, priority 2007, published 2010)
Like-named read-outs stand apart in the source and are kept apart here.

Experiments:
[1] = tested on: hyperphosphorylated Rb; experiment: Western blot of Rb and p53 in HCMV infected HFF cells; assay type: cell-based, human
Experimental: Polyacrylamide gels and western blotting. HFF cells were infected at a multiplicity of infection of 2 PFU/cell and at 24 and 72 hours following infection they were disrupted in 2× Lamelli buffer (Sigma-Aldrich, St. Louis, Mo.) and separated on 10%, 7.5%, or 5% polyacrylamide gels depending on the size of the protein to be resolved (BioRad, Hercules, Calif.). Separated proteins were transferred to PVDF membranes (Roche Applied Science, Indianapolis, Ind.) in a buffer containing 28 mM Tris, 39 mM glycine, 0.0375% SDS and 20% methanol in a semi dry transfer cell (BioRad, Hercules, Calif.). Membranes were blocked in 1% blocking buffer (Roche Applied Science, Indianapolis, Ind.), incubated with primary antibodies overnight at 4° C. and washed extensively with PBS supplemented with 0.02% tween 20. A secondary antibody conjugated to alkaline phosphatase (Southern Biotechnology Associates, Birmingham, Ala.) and CDP* (Roche Applied Science, Indianapolis, Ind.) were used to detect the bound primary antibody. Monoclonal antibodies used in these studies were directed against PML (H-238) (Santa Cruz Biotechnology, Santa Cruz, Calif.), DAXX (Upstate Cell Signaling Solutions, Tamecula, Calif.), p53, retinoblastoma, β-tubulin, CREB binding protein (CBP) (Chemicon International, Tamecula, Calif.), and both V5 and Xpress (Invitrogen, Carlsbad, Calif.).
UL97 kinase activity is required for the hyperphosphorylation of Rb. […] Proteins in this complex were examined by Western blots using samples derived from HFF cells that were uninfected, infected with AD169 a recombinant virus (RCΔA97) containing a large deletion in UL97 at a multiplicity of infection of 3 PFU/cell. Some of the infections were conducted in the presence of MBV to confirm that the observed changes were due to a deficiency of its kinase activity. […] In cells infected with the wt virus, increases in levels of p53 were observed (FIG. 4 lanes 9-12), but this increase was unaffected by the deletion of the UL97 open reading frame or treatment with maribavir. Also consistent with this previous report was an increase of hyperphosphorylated Rb at both 24 and 72 hours following infection (FIG. 4, lanes 3, 9). […] A previous report has shown that pp71 directs the proteasome dependent degradation of hypophosphorylated Rb, however observations presented here are distinct in that the hyperphosphorylation and stabilization of this form of Rb is inefficient in the absence UL97 kinase activity.

[2] = biological target: T1, HCMV UL97 kinase (Human cytomegalovirus, UniProt P16788); experiment: Surrogate assay: UL97 kinase dependent inhibition of pp65-GFP nuclear aggregation; assay type: cell-based
T1 construct: expressed in transfected cells; host or cells: COS7 cells (transient co-transfection)

[3] = tested on: HHV-6; conditions: Williams-Aziz et al. 2005; cited from earlier work
[4] = biological target: T2, pUL97 (Human cytomegalovirus, UniProt P16788); experiment: Number of PML bodies in COS7 cells expressing pUL97; assay type: cell-based, HCMV; conditions: FIG. 3F
T2 construct: expressed in transfected cells; host or cells: COS7 cells (transient co-transfection)
Experimental: Indirect immunofluorescence microscopy. Cells expressing proteins from transfected plasmids were visualized by methods published previously (Prichard et al., J. Virol. 79:15494-502 (2005)). Briefly, monolayers of HFF cells were grown on 12 mm diameter coverslips in 24-well plates. Transfected cells were fixed for 15 minutes with freshly prepared 2% formaldehyde in phosphate buffered saline (PBS), washed two times with PBS, and membranes were permeabilized with 0.2% Triton X-100 in PBS for 15 minutes. Monoclonal antibody to the V5 epitope tag was purchased from Invitrogen (Carlsbad, Calif.). Monoclonal antibodies to IE1 (63-27) and ppUL44 (28-21) were generously provided by Bill Britt and were used as culture supernatants with goat anti-mouse secondary antibodies conjugated to FITC or Texas Red (Southern Biotechnology, Birmingham, Ala.).
PML bodies are affected by the kinase. Nuclear aggresomes form in a dynamic microtubule dependent process that initiates with fusion of small aggregations located at or near PML bodies. To determine the effect of pUL97 on these structures, this and other proteins were expressed in COST cells and visualized PML bodies with an antibody to SP100, which is a marker of these domains. […] Their number was also unaffected by the expression of pp71, however it colocalized with these structures and is consistent with previous reports. […]

[5] = biological target: T3, HHV-6B U69 protein kinase (Human herpesvirus 6B, UniProt P52446); experiment: Surrogate assay: U69 kinase dependent inhibition of pp65-GFP nuclear aggregation; assay type: cell-based; conditions: 15 μM MBV, FIG. 8; listed as MBV
T3 construct: expressed in transfected cells
Excerpt: This assay is similar to that reported previously for UL97 (Prichard, M. N., et al., 2005. Human cytomegalovirus UL97 Kinase is required for the normal intranuclear distribution of pp65 and virion morphogenesis. J Virol 79:15494-502). […] Inhibition of aggregation was kinase dependent since the U69B K219M mutation, which eliminates an essential lysine, is incapable of inhibiting aggregation.

[6] = biological target: T4, UL97 kinase (Human cytomegalovirus, UniProt P16788); experiment: UL97 kinase inhibition of pp71 aggregation in cotransfected COS7 cells; assay type: cell-based, HCMV
T4 construct: expressed in transfected cells; host or cells: COS7 cells (transient co-transfection)

[7] = tested on: GS strain of HHV-6A; experiment: Efficacy against HHV-6A in HSB-2 cells with reduced serum; assay type: cell-based
Experimental: The activity of MBV was evaluated against the GS strain of HHV-6A in HSB-2 cells with reduced serum to slow the growth of lymphocytes.

## CC(C)Nc1nc2cc(Cl)c(Cl)cc2n1[C@H]1O[C@@H](CO)[C@H](O)[C@@H]1O [maribavir]
[1]; HFF cells infected with UL97 deletion virus RCΔ97
  Levels of hyperphosphorylated Rb: relatively unaffected
[1]; HFF cells infected with wt virus
  Increase in levels of p53: unaffected
[1]; HFF cells infected with wt virus AD169, 24 hours post infection
  Increase of hyperphosphorylated Rb: did not occur
[1]; HFF cells infected with wt virus AD169, 72 hours after infection
  Levels of hyperphosphorylated Rb: significantly reduced
[1]; infected cells, 24 and 72 hours, FIG. 4 legend
  Hyperphosphorylated forms of Rb: reduced
[2]; 15 μM MBV, FIG. 8, listed as MBV
  Effect on ability of UL97 to inhibit pp65-GFP aggregation: reduces the ability of UL97 and U69 to inhibit aggregation
[2]; COS7 cells co-expressing pp65-GFP and UL97
  Effect on inhibition of pp65 aggregate formation by the kinase: antagonized
[3]
  Inhibition of HHV-6 replication: poor inhibitor
[4]
  Effect on pUL97 reduction of the number of PML bodies: neither the K355M mutant, or pUL97 in the presence of maribavir could affect their numbers
[5]
  Effect on ability of U69 to inhibit pp65-GFP aggregation: reduces the ability of UL97 and U69 to inhibit aggregation
[6]
  Effect on kinase inhibition of pp71 aggregation: unable to inhibit the aggregation of pp71 in the presence of MBV
[7]; HSB2, GS strain of HHV-6A, HSB-2 cells, reduced serum, read-out: EC50 values under conditions of reduced serum
  EC50: 9 to 30 µM
[7]; HSB2, HHV-6A in HSB-2 cells, 2% FBS, read-out: EC50
  EC50: 30 µM
[7]; HSB2, HHV-6A in HSB-2 cells, 5% FBS, read-out: EC50
  EC50: 9 µM
[7]; HSB2, HHV-6A in HSB-2 cells, 10% FBS, read-out: EC50
  EC50: > 50 µM
